Assay results from patent US8741897B2, “Glucocorticoid mimetics, methods of making them, pharmaceutical compositions and uses thereof” (Boehringer Ingelheim Pharmaceuticals Inc., priority 2003, dated 2014).

Test system: glucocorticoid receptor function
Assay: one or more of the above assays (GR binding and glucocorticoid receptor cell assays: aromatase, IL-6, TAT, MMTV-Luc, IL-8, ICAM-Luc)
Format: cell-based
Conditions: assay not specified per compound

Row | Compound | activity as agonists of the glucocorticoid receptor function in one or more of the above assays
1 | Cc1cccc2[nH]c(CC(O)(CC(C)(C)c3cc(S(C)(=O)=O)cc4c3OCC4)C(F)(F)F)cc12 (stereo not drawn) [1,1,1-Trifluoro-4-(5-methanesulfonyl-2,3-dihydrobenzofuran-7-yl)-4-methyl-2-(4-methyl-1H-indol-2-ylmethyl)pentan-2-ol] | potent agonists
2 | CC(C)(CC(O)(Cn1ccc2ncccc21)C(F)(F)F)c1cc(S(C)(=O)=O)cc2c1OCC2 (stereo not drawn) [1,1,1-Trifluoro-4-(5-methanesulfonyl-2,3-dihydrobenzofuran-7-yl)-4-methyl-2-pyrrolo[3,2-b]pyridin-1-ylmethylpentan-2-ol] | potent agonists
3 | CC(C)(CC(O)(Cc1cc2cc(N3CCOCC3)ncc2[nH]1)C(F)(F)F)c1cccc(-c2cncnc2)c1 (stereo not drawn) [1,1,1-Trifluoro-4-methyl-2-(5-morpholin-4-yl-1H-pyrrolo[2,3-c]pyridin-2-ylmethyl)-4-(3-pyrimidin-5-ylphenyl)pentan-2-ol] | potent agonists
4 | CC(C)(CC(O)(Cc1cc2cc(N3CCOCC3)ncc2[nH]1)C(F)(F)F)c1ccccc1 (stereo not drawn) [1,1,1-Trifluoro-4-methyl-2-(5-morpholin-4-yl-1H-pyrrolo[2,3-c]pyridin-2-ylmethyl)-4-phenylpentan-2-ol] | potent agonists
5 | CC(C)(CC(O)(Cc1cc2ccncc2[nH]1)C(F)(F)F)c1cccc(CN2CCOCC2)c1 (stereo not drawn) [1,1,1-Trifluoro-4-methyl-4-(3-morpholin-4-ylmethylphenyl)-2-(1H-pyrrolo[2,3-c]pyridin-2-ylmethyl)pentan-2-ol] | potent agonists
6 | CC(C)(CC(O)(Cc1cc2cnccc2[nH]1)C(F)(F)F)c1cccc(CN2CCOCC2)c1 (stereo not drawn) [1,1,1-Trifluoro-4-methyl-4-(3-morpholin-4-ylmethylphenyl)-2-(1H-pyrrolo[3,2-c]pyridin-2-ylmethyl)pentan-2-ol] | potent agonists
7 | CC(C)(CC(O)(Cc1cc2cc(N3CCOCC3)ncc2[nH]1)C(F)(F)F)c1cccc(CN2CCOCC2)c1 (stereo not drawn) [1,1,1-Trifluoro-4-methyl-4-(3-morpholin-4-ylmethylphenyl)-2-(5-morpholin-4-yl-1H-pyrrolo[2,3-c]pyridin-2-ylmethyl)pentan-2-ol] | potent agonists
8 | CC(C)(CC(O)(Cc1cc2cc(-c3ccccc3)ncc2[nH]1)C(F)(F)F)c1cccc(CN2CCOCC2)c1 (stereo not drawn) [1,1,1-Trifluoro-4-methyl-4-(3-morpholin-4-ylmethylphenyl)-2-(5-phenyl-1H-pyrrolo[2,3-c]pyridin-2-ylmethyl)pentan-2-ol] | potent agonists
9 | CC(C)(CC(O)(Cc1cc2cnccc2[nH]1)C(F)(F)F)c1cccc(-c2cccnc2)c1 (stereo not drawn) [1,1,1-Trifluoro-4-methyl-4-(3-pyridin-3-ylphenyl)-2-(1H-pyrrolo[3,2-c]pyridin-2-ylmethyl)pentan-2-ol] | potent agonists
10 | CC(C)(CC(O)(Cc1cc2cnccc2[nH]1)C(F)(F)F)c1cccc(-c2cncnc2)c1 (stereo not drawn) [1,1,1-Trifluoro-4-methyl-4-(3-pyrimidin-5-ylphenyl)-2-(1H-pyrrolo[3,2-c]pyridin-2-ylmethyl)pentan-2-ol] | potent agonists
11 | CSc1cc2c(c(C(C)(C)CC(O)(Cn3ccc4ncccc43)C(F)(F)F)c1)OCC2 (stereo not drawn) [1,1,1-Trifluoro-4-methyl-4-(5-methylsulfanyl-2,3-dihydrobenzofuran-7-yl)-2-pyrrolo[3,2-b]pyridin-1-ylmethylpentan-2-ol] | potent agonists
12 | CC(C)(CC(O)(Cc1cc2nc(-c3ccccc3)ncc2[nH]1)C(F)(F)F)c1ccccc1 (stereo not drawn) [1,1,1-Trifluoro-4-methyl-4-phenyl-2-(2-phenyl-5H-pyrrolo[3,2-d]pyrimidin-6-ylmethyl)pentan-2-ol] | potent agonists
13 | CC(C)(CC(O)(Cc1cc2cc(-c3ccccc3)nnc2[nH]1)C(F)(F)F)c1ccccc1 (stereo not drawn) [1,1,1-Trifluoro-4-methyl-4-phenyl-2-(3-phenyl-7H-pyrrolo[2,3-c]pyridazin-6-ylmethyl)pentan-2-ol] | potent agonists
14 | CC(C)(CC(O)(Cc1cc2cc(N3CCCCC3)ncc2[nH]1)C(F)(F)F)c1ccccc1 (stereo not drawn) [1,1,1-Trifluoro-4-methyl-4-phenyl-2-(5-piperidin-1-yl-1H-pyrrolo[2,3-c]pyridin-2-ylmethyl)pentan-2-ol] | potent agonists
15 | COc1ccc(F)cc1C(C)(C)CC(O)(Cc1cc2ccncc2[nH]1)C(F)F (stereo not drawn) [1,1-Difluoro-4-(5-fluoro-2-methoxyphenyl)-4-methyl-2-(1H-pyrrolo[2,3-c]pyridin-2-ylmethyl)pentan-2-ol] | agonists
16 | CC(C)(CC(O)(Cn1ccc2c1CCCC2=O)C(F)(F)F)c1cc(-c2cccnc2)ccc1O (stereo not drawn) [1-[2-Hydroxy-4-(2-hydroxy-5-pyridin-3-ylphenyl)-4-methyl-2-trifluoromethylpentyl]-1,5,6,7-tetrahydroindol-4-one] | agonists
17 | CC(C)(CC(O)(Cn1ccc2c1CCCC2=O)C(F)(F)F)c1cc(-c2cncnc2)ccc1O (stereo not drawn) [1-[2-Hydroxy-4-(2-hydroxy-5-pyrimidin-5-ylphenyl)-4-methyl-2-trifluoromethylpentyl]-1,5,6,7-tetrahydroindol-4-one] | agonists
18 | COc1ccc(-c2cccnc2)cc1C(C)(C)CC(O)(Cn1ccc2c1CCCC2=O)C(F)(F)F (stereo not drawn) [1-[2-Hydroxy-4-(2-methoxy-5-pyridin-3-ylphenyl)-4-methyl-2-trifluoromethylpentyl]-1,5,6,7-tetrahydroindol-4-one] | agonists
19 | COc1ccc(-c2cncnc2)cc1C(C)(C)CC(O)(Cn1ccc2c1CCCC2=O)C(F)(F)F (stereo not drawn) [1-[2-Hydroxy-4-(2-methoxy-5-pyrimidin-5-ylphenyl)-4-methyl-2-trifluoromethylpentyl]-1,5,6,7-tetrahydroindol-4-one] | agonists
20 | CC(C)(CC(O)(Cn1ccc2c1CCCC2=O)C(F)(F)F)c1cc(-c2cncnc2)cc2c1OCC2 (stereo not drawn) [1-[2-Hydroxy-4-methyl-4-(5-pyrimidin-5-yl-2,3-dihydrobenzofuran-7-yl)-2-trifluoromethylpentyl]-1,5,6,7-tetrahydroindol-4-one] | agonists
21 | CC(C)(CC(O)(Cn1ccc2c1CCCC2=O)C(F)(F)F)c1cccc2c1OCC2 (stereo not drawn) [1-[4-(2,3-Dihydrobenzofuran-7-yl)-2-hydroxy-4-methyl-2-trifluoromethylpentyl]-1,5,6,7-tetrahydroindol-4-one] | agonists
